We go through seven compounds from patent publication US8048882B2, “Pharmaceutical compositions with increased activity” (priority 2003, dated 2011).

Where two headings read alike, the source gives them in different places.

For series [1], the system named is GYKI 20039-induced tremor. In words: GYKI 20039-induced tremor test. In kind it is in vivo, mice. Particulars: for change of effectiveness in tremor test when a serotonin uptake inhibitor is present: with 10 mg/kg fluoxetine or 10 mg/kg sertraline i.p., FIG. 4. As for the experimental part:
Tremor can be induced by administration of GYKI 20039 (3-(2,6-diclorophenyl)-2-iminothiazolidine). The method was published by Kocsis P., Tarnawa I., Kovacs Gy., Szombathelyi Zs., Farkas S., 2002; Acta Pharmaceut. Hung., 72:49-61; U.S. Pat. No. 5,340,823, 1994, U.S. Pat. No. 5,198,446, JP 1992270293, EP 0468825, 1990 HU 4647.
Tests were carried out in male NMRI mice (19-21 g), the active substances were administered i.p., simultaneously.
Experiments with combinations containing the active agents in a fixed ratio were also performed.

A short description of the next series: Rotarod test. Particulars: male, NMRI, mouse, in vivo, read-out: ED50, rotarod test in mice. The protocol:
By the rotarod test (Dunnham, N. W., Miya, T. S. J. Am. Pharm. Assoc. 46, 208, 1957) impaired coordination and disorders of the voluntary movement as possible side effects can be studied. In this respect the change in the potency of the voltage-dependent sodium channel blockers caused by the serotonin uptake inhibitors was far less pronounced, resulting in a more favourable side effect profile of the combinations compared to that of the parent compounds.
The tests were carried out using male NMRI mice (19-21 g). Experiments performed with different pretreatment times produced similar results.

The test system of series [2] is maximal electroshock seizures. Kind of series: Inhibition of maximal electroshock seizures (MES). Particulars: sodium channel blocker 30 minutes prior to electroshock. It counts as in vivo, mice. As for the experimental part:
Experiments in this respect were carried out on male NMRI mice (19-21 g).
Serotonin uptake inhibitors were administered i.p. 45 minutes, while sodium channel blockers 30 minutes prior to the electroshock.
(In general: Protection in the maximal electroshock model is a classic sign of anticonvulsant action.)

In series [3] the test system is spinal reflex (L5 ventral root reflex potential). In words: Inhibition of the spinal reflex in isolated hemisected spinal cord preparation, in vitro. The conditions noted are these: alone. Further details: species or system rat. The protocol:
Our experiments were performed according to the methods described by Otsuka and Konishi (Otsuka, M., Konishi, S. Electrophysiology of mammalian spinal cord in vitro. Nature 252, 733-734; 1974), with slight modifications (Kocsis, P. et al. Participation of AMPA- and NMDA-type excitatory amino acid receptors in the spinal reflex transmission, in rat. Brain Research Bulletin 60: 81-91; 2003). The L5 dorsal root of the isolated, hemisected spinal cord preparation was stimulated by supramaximal electrical impulse and the reflex potential from the L5 ventral root was recorded. Different components of the reflex potential obtained are well distinguishable based on their post-stimulus latencies and durations. […] This preparation is ideal for the investigation of pharmacodynamic interactions between two substances, since metabolic factors take no part in them. […] Cont (control)=effect of crobenitine in itself; as well as in the presence of fluoxetine (Fluo; 1 μM), sertraline (Sert; 0.5 μM), paroxetine (Paro; 10 nM) and citalopram (Cital; 5 nM).

Series [4] concerns phenylquinone-induced acute pain. Kind of series: Phenylquinone-induced acute pain (writhing test). The conditions noted are these: with 10 mg/kg fluoxetine given 15 minutes prior to lamotrigine (i.p.); FIG. 5. It counts as in vivo, mice. An excerpt: The method used was described by Hendershot and Forsaith in 1959. (Kazuko Goto et al. Analgesic Effect of Mofezolac, a Non-Steroidal Anti-Inflammatory Drug, Against Phenylquinone-Induced Acute Pain in Mice. Prostaglandins & other Lipid Mediators 56: 245-254; 1998, Prem Prakash Singh et al. Acetic Acid and Phenylquinone WrithingTest: A Critical Study in Mice. Meth and Find Exptl Clin Pharmacol 5(9): 601-606; 1983.) Acute pain was induced by injecting phenylquinone, an irritant, into the abdominal cavity (0.02% solution, 0.1 ml/10 g bodyweight). […] Experiments were performed in male NMRI mice (19-21 g).
Background: An intraperitoneal irritant provokes the stretching counted in writhing tests.

Where [5] appears, read: 10 mg/kg intraperitoneal dose in mice.
[6] abbreviates: in combination with fluoxetine (10 mg/kg).
Setting [7] is: in combination with sertraline (10 mg/kg).
The mark [8] stands for this setting: with fluoxetine (10 mg/kg) i.p. 45 minutes.
[9] abbreviates: with sertraline (10 mg/kg) i.p. 45 minutes.

As to `N=C1SCCN1c1c(Cl)cccc1Cl` [GYKI 20039, 3-(2,6-diclorophenyl)-2-iminothiazolidine], in series [1] (setting [5]), the “duration of induced tremor” value is 30 to 60 min and the tremor induction entry is listed as “intensive tremor”.
As usually defined, the ED50 is the dose at which the effect has come halfway, by size or by number of responders. As for `C[C@@H](CN1CC[C@@]2(C)c3cccc(O)c3C[C@@H]1C2(C)C)OCc1ccccc1` [crobenetine], the figures for the ED50 at 20 min in the series “Rotarod test” (alone), in “Rotarod test” (setting [6]) and in the series “Rotarod test” (setting [7]) were 68.1 mg/kg, 38.6 mg/kg and 36.8 mg/kg, respectively. The figures for the ED50 at 35 min in “Rotarod test” (setting [6]) and in “Rotarod test” (setting [7]) were 51 mg/kg and 53.1 mg/kg, respectively. The “change of effectiveness in tremor test when a serotonin uptake inhibitor is present” value in series [1] is recorded as “increase of their effectiveness”. Further, the “ID50 (MES inhibition in mice)” value was >>20 in series [2] (alone), 17 mg/kg in series [2] (setting [8]) and 15.5 mg/kg in series [2] (setting [9]).
For `CCc1ccc(C(=O)C(C)CN2CCCCC2)cc1` (stereo not shown) [eperisone], the “spinal reflex inhibitory effect” value in series [3] is given as “considerable spinal reflex inhibitory effect”.
As for `CNCCC(Oc1ccc(C(F)(F)F)cc1)c1ccccc1` (stereo not shown) [fluoxetine], in the series “Rotarod test” (alone), the ED50 at 20 min came to 43.5 mg/kg and the median effective dose (ED50) at 35 min turned out to be 45.8 mg/kg.
`Nc1nnc(-c2cccc(Cl)c2Cl)c(N)n1` [lamotrigine]: the figures for the ED50 at 20 min in “Rotarod test” (alone), in the series “Rotarod test” (setting [6]) and in the series “Rotarod test” (setting [7]) were 34.3 mg/kg, 28.5 mg/kg and 31.9 mg/kg, respectively. Also, the ED50 at 35 min was found to be 31.1 mg/kg in the series “Rotarod test” (setting [6]) and 30.8 mg/kg in the series “Rotarod test” (setting [7]). In addition, the “ID50 (i.p.) (calculated for the sodium channel blocker in the combination)” value in series [1] (tremor test, male NMRI mice, i.p., components administered simultaneously in fixed ratio) was 39.79 mg/kg. The “change of effectiveness in tremor test when a serotonin uptake inhibitor is present” value in series [1] is “increase of their effectiveness”. Further, the ID50 (MES inhibition in mice) amounted to 4.5 mg/kg in series [2] (alone), 1.3 mg/kg in series [2] (setting [8]) and 1.4 mg/kg in series [2] (setting [9]). Also, the “change in analgesic potency (ID50, writhing test) in the presence of a serotonin uptake inhibitor” value in series [4] was “Increase in the analgesic potency”.
With `CN[C@H]1CC[C@@H](c2ccc(Cl)c(Cl)c2)c2ccccc21` [sertraline], in the series “Rotarod test” (alone), the ED50 at 20 min was 112 mg/kg and the median effective dose (ED50) at 35 min was determined as 120 mg/kg.
As for `Cc1ccc(C(=O)C(C)CN2CCCCC2)cc1` (stereo not shown) [tolperisone], the “spinal reflex inhibitory effect” value in series [3] was “considerable spinal reflex inhibitory effect”.
